Legend:
E. coli AcrB = molecular target: T1, E. coli AcrB (Escherichia coli, UniProt P31224); assay: Single-particle cryo-EM of AcrB-EPM complexes in nanodiscs; conditions: "binding" protomer of the AcrB trimer; 10 µM EPM
T1 construct: 4xHis (C); made in house; host or cells: E. coli BL21-Gold (DE3), plasmid derived from pSPORT1
Procedure: To elucidate at high resolution how the EPM analogs interact with AcrB, we used cryo-electron microscopy (cryo-EM). We overproduced and purified the E. coli AcrB protein containing a 6×His tag at the C-terminus and reconstituted the protein into lipidic nanodiscs ([17]). We incubated the AcrB-nanodisc samples with the parent compound or with one of three structurally dissimilar EPMs analogs (CU032, CU232, CU244) to form AcrB-EPM complexes. We then solved single-particle cryo-EM structures of these complexes to resolutions between 2.63 and 2.82 Å (Table 2; Fig. 3).
AcrB was purified from E. coli BL21(DE3)ΔacrB/pSPORTΩacrB cells and reconstituted into lipidic nanodiscs. To assemble AcrB into nanodiscs, a mixture containing 10 µM AcrB, 30 µM membrane scaffold protein (1E3D1), and 900 µM E. coli total extract lipid was incubated for 15 min at room temperature. After, 0.8 mg/mL prewashed Bio-Beads (Bio-Rad) was added. The resultant mixture was incubated for 1 h on ice, followed by overnight incubation at 4°C. The protein-nanodisc solution was filtered through 0.22 µm nitrocellulose filter tubes to remove the Bio-Beads. To separate free nanodiscs from AcrB-loaded nanodiscs, the filtered protein-nanodisc solution was purified using a Superose six column (GE Healthcare) equilibrated with 20 mM Tris-HCl (pH 7.5) and 100 mM NaCl. Fractions corresponding to the size of the trimeric AcrB-nanodisc complex were collected for cryo-EM ([46]). We then incubated 0.6 mg/mL AcrB-nanodisc with 10 µM EPM for 2 h and solved structure of the AcrB-EPM complex using single-particle cryo-EM to a resolution of 2.20 Å.

[1] = test system: Bacillus subtilis expressing mNeongreen-FtsZ; assay: Membrane voltage disruption assay (mNeongreen-FtsZ delocalization); format: cell-based; conditions: 150 µM, 15 min, LPM 5.5
Source text: We therefore monitored membrane integrity in the presence of EPM analogs by evaluating membrane voltage with mNeongreen-FtsZ ([28][–][30]). The FtsZ protein localizes to the bacterial septum based on membrane potential, and rapid delocalization of fluorescent FtsZ reporters occurs when voltage across the membrane is disrupted ([31], [32]). We monitored mNeongreen-FtsZ localization in a Gram-positive bacterium, Bacillus subtilis, to eliminate the potentially confounding issue of the passage of EPM analogs through the outer membrane at different rates ([24], [33][–][36]).
To determine whether exposure to compound dislodges FtsZ from the cell septum, an overnight culture of Bacillus subtilis grown in LPM at pH 5.5 (LPM 5.5) expressing mNeonGreen-FtsZ (strain DK5092) was exposed to DMSO, CCCP (100 µM) or an EPM analog (150 µM) for 15 or 30 min, as indicated. Bacteria were immobilized on 1% agarose pads made with LPM under a coverslip. To set the threshold value for the FtsZ septal ring, mNeonGreen signal (excitation 488 nm, emission 525 nm) from at least 20 DMSO-treated cells was quantified using a CV1000 confocal microscope with a 100× oil, NA = 1.4 objective. A background-subtracted image was made by subtracting the median intensity from full original images. A signal threshold of ≥400 arbitrary units per pixel was set (Fig. 4B). Then, we manually confirmed that mNeonGreen signal above threshold was at the center of the bacterial rod. We examined 50 cells per sample from at least three biological replicates (≥150 cells per condition). A MATLAB program (https://github.com/Betterton-Lab/FtsZ-Quantification) counted the number of pixels above threshold per cell and averaged this value across all cells for each condition and this value is reported in the graph (Fig. 4C).

S. Typhimurium = assay: Checkerboard growth assays with antibiotics in LPM 5.5 (FICI and MuSyC analyses); format: cell-based; parameters: Antibiotic MIC Combination: unit not given here; EPM MIC Combination: unit: µM; conditions: for log10(α1) [95% CI] (log-fold-change in potency of EPM due to the antibiotic) / log10(α2) [95% CI] (log-fold-change in potency of the antibiotic due to the EPM) / Βobs [95% CI] (proportion increase in maximal efficacy of the antibiotic): MuSyC fit; for Antibiotic MIC Combination / EPM MIC Combination / FICI value: LPM 5.5
Procedure: To examine whether the EPM analogs interact additively or synergistically with antibiotics, checkerboard growth assays were carried out in LPM 5.5. We compared three antibiotics (ciprofloxacin, doxycycline, erythromycin) and three EPM analogs (CU032, CU187, CU232) and the EPM35 parent compound (Fig. 6A). Standard fractional inhibitory concentration index (FICI) analyses supported synergy between the EPM analogs and ciprofloxacin (Fig. 6B). Since FICI values cannot distinguish between synergy due to changes in potency (activity) versus efficacy (the extent of the effect) ([42], [43]), we used the MuSyC synergy algorithm to measure EPM-antibiotic synergy ([44], [45]). The data were well fit by the MuSyC equation, with an R^2 of greater than 0.96 for all checkerboards (Table S2). […] Moreover, the consistency in the synergy of potency values across the antibiotics with different EPM analogs points toward a shared mechanism of action: the EPMs could modify the pharmacodynamics of the efflux process and prevent export of specific substrates through interactions with AcrB. We posit that the EPMs differentially reduce antibiotic export resulting in a higher effective intracellular concentration of the antibiotic.
Overnight cation-adjusted MHB-grown cultures of SL1344 or SA10801 were diluted in MHB or LPM 5.5 to an optical density at 600 nm (OD600) of 0.01 and distributed into polystyrene 96-well flat-bottom plates. EPM analogs were added at concentrations up to 300 µM, near the limit of solubility. The antibiotics ciprofloxacin, doxycycline, and erythromycin were added up to concentrations of 2 µM, 2 µM, and 8 µM, respectively. The final DMSO concentration was at or below 2% in all wells. Plates were grown at 37°C with shaking for 18 h and OD600 was monitored (BioTek Synergy H1, BioTek Eon). Each experiment was performed with biological triplicate or higher as indicated. Percent growth was determined by normalizing to OD600 reads in wells containing no D66 or antibiotic. Checkerboards in LPM 5.5 medium were performed with culture grown overnight in LB and diluted to an OD600 of 0.01 in LPM 5.5 and compounds/antibiotics were added as previously described. MuSyC analysis was pursued as previously described ([44], [45]). Briefly, the 2D Hill equation was fit to the normalized growth inhibition data from the checkerboards using a bounded non-linear least square regression algorithm. A Monte Carlo sampling method was used to compute the 95% CI in the parameter fits from three biological replicates. The bounds on the parameters minimal and maximal efficacy of the antibiotics and EPMs (E0,Emax) were [0.99,1.01] and [0,1], respectively ([44], [45]).

[2] = ciprofloxacin (CIPRO) MIC in combination with the EPM
[3] = doxycycline (DOXY) MIC in combination with the EPM

T1 sequence (P31224 whole entry): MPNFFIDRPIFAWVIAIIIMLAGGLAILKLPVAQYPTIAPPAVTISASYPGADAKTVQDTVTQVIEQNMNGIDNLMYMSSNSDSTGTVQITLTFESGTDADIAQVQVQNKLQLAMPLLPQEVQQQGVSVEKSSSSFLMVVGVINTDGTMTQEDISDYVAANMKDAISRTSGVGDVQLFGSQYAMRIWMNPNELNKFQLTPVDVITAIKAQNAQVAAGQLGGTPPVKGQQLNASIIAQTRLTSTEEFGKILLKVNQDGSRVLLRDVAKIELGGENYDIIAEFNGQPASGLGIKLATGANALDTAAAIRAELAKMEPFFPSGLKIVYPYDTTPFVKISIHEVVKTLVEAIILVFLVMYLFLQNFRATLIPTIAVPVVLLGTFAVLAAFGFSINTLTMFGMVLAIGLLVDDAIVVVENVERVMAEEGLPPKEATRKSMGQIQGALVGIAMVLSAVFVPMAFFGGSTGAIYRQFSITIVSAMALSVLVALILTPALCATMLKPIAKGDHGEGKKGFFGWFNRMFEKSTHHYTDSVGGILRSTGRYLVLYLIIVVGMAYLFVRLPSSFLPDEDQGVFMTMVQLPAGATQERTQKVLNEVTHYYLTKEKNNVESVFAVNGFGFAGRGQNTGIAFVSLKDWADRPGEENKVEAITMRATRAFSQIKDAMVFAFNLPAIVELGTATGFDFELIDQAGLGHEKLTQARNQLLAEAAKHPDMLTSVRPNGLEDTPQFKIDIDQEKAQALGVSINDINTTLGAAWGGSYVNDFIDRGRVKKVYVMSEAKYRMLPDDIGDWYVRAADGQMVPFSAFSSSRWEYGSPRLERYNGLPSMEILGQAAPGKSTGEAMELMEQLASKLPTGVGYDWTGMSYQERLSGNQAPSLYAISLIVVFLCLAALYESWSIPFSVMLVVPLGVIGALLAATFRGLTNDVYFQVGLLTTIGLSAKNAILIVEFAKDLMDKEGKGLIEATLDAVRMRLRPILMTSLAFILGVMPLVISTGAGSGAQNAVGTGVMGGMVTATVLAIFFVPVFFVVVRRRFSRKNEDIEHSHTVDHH

Compound	binding site in AcrB (cryo-EM) (E. coli AcrB)	effect on mNeongreen-FtsZ ring size / localization [1]	log10(α1) [95% CI] (log-fold-change in potency of EPM due to the antibiotic) (S. Typhimurium; Ciprofloxacin)	log10(α2) [95% CI] (log-fold-change in potency of the antibiotic due to the EPM) (S. Typhimurium; Ciprofloxacin)	Βobs [95% CI] (proportion increase in maximal efficacy of the antibiotic) (S. Typhimurium; Ciprofloxacin)	log10(α1) [95% CI] (log-fold-change in potency of EPM due to the antibiotic) (S. Typhimurium; Doxycycline)	log10(α2) [95% CI] (log-fold-change in potency of the antibiotic due to the EPM) (S. Typhimurium; Doxycycline)	Βobs [95% CI] (proportion increase in maximal efficacy of the antibiotic) (S. Typhimurium; Doxycycline)	log10(α1) [95% CI] (log-fold-change in potency of EPM due to the antibiotic) (S. Typhimurium; Erythromycin)	log10(α2) [95% CI] (log-fold-change in potency of the antibiotic due to the EPM) (S. Typhimurium; Erythromycin)	Βobs [95% CI] (proportion increase in maximal efficacy of the antibiotic) (S. Typhimurium; Erythromycin)	Antibiotic MIC Combination (S. Typhimurium; [2])	Antibiotic MIC Combination (S. Typhimurium; [3])	EPM MIC Combination (S. Typhimurium; with ciprofloxacin (CIPRO))	FICI value (S. Typhimurium; with ciprofloxacin (CIPRO))	EPM MIC Combination (S. Typhimurium; with doxycycline (DOXY))	FICI value (S. Typhimurium; with doxycycline (DOXY))	EPM MIC Combination (S. Typhimurium; with erythromycin (ERY))	FICI value (S. Typhimurium; with erythromycin (ERY))	synergy with antibiotics (S. Typhimurium; checkerboards in LPM 5.5)
NC1CCN(CC(O)COc2ccc(Cl)c(Cl)c2)C1 (centres unmarked) [CU032]	distal drug-binding pocket	no significant effect	0.0 [-0.42,0.07]	1.52 [1.32,1.56]	0.07 [0.05,0.1 ]	-0.06 [-0.3,0.04]	0.25 [0.17,0.28]	0.0 [-0.01,0.01]	0.08 [-0.23,0.05]	1.11 [0.98,1.11]	0.04 [0.04,0.07]	1	2	30	0.35	100	0.55	100	0.58	
OC(CN[C@H]1[C@@H]2CNC[C@@H]21)COc1cc(Cl)cc(Cl)c1 (some centres unmarked) [CU244]	distal drug-binding site																			
NC1CCN(CC(O)COc2cccc(C(F)(F)F)c2)CC1 (centres unmarked) [CU232]	distal drug-binding site	no significant effect	0.34 [0.18,0.38]	1.87 [1.73,1.85]	0.0 [-0.02,0.03]	0.14 [-0.23,0.33]	0.16 [0.06,0.19]	0.02 [-0.01,0.02]	-0.02 [-0.35,-0.05]	1.38 [1.11,1.44]	0.06 [0.05,0.07]	1	2	44	0.4	100	0.58	100	0.58	
OC(COc1ccc(Cl)c(Cl)c1)CN1CCC(Nc2nccc(C(F)(F)F)n2)CC1 (centres unmarked) [EPM35]	distal drug-binding pocket	did not alter FtsZ localization	0.58 [0.17,0.77]	-0.12 [-0.22,0.03]	0.01 [-0.01,0.01]	0.7 [0.41,0.87]	0.43 [0.31,0.39]	-0.01 [-0.04,-0.01]	0.49 [0.15,0.74]	-0.01 [-0.06,0.03]	0.01 [-0.01,0.01]	1	2	150	0.7	150	1	150	1	did not synergize with the antibiotics

Reference: article PMC10746280, “Bacterial efflux pump modulators prevent bacterial growth in macrophages and under broth conditions that mimic the host environment” (mBio, 2023)
